Results published in ChEMBL document CHEMBL4152362, “Discovery of DS-6930, a potent selective PPARγ modulator. Part II: Lead optimization” (Bioorg Med Chem, 2018).
≈ marks a conversion by molar mass, not a printed value. One block for each compound: values may come before it. Calls of active or inactive are those of the source. No cut-off for these calls is given here.

Assays:
[1] = Apparent permeability of the compound after 4 hrs by PAMPA; type: ADME
[2] = molecular target: T1, Peroxisome proliferator-activated receptor alpha (Homo sapiens, UniProt Q07869); assay: Agonist activity at recombinant human GAL4-DBD fused PPARalpha LBD expressed in COS7 cells after 24 hrs by luciferase reporter gene assay; type: cell-based
T1 sequence (Q07869 whole entry): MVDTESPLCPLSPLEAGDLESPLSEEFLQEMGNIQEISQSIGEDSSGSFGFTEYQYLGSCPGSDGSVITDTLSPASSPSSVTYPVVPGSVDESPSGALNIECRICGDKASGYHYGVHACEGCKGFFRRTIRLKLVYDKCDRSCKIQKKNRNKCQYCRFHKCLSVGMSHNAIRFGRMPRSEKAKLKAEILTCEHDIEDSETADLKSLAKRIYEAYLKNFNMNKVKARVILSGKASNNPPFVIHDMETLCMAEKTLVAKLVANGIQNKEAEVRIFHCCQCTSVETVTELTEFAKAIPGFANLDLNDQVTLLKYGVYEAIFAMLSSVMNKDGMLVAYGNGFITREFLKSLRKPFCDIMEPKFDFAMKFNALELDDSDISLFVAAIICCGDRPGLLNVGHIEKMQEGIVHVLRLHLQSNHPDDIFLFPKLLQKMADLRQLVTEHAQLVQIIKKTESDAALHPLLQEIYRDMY

[3] = molecular target: T2, Peroxisome proliferator-activated receptor gamma (Homo sapiens) (UniProt P37231); assay: Agonist activity at recombinant human GAL4-DBD fused PPARgamma LBD expressed in COS7 cells at 10 uM after 24 hrs by luciferase reporter gene assay relative to rosiglitazone; type: cell-based
T2 sequence (whole entry): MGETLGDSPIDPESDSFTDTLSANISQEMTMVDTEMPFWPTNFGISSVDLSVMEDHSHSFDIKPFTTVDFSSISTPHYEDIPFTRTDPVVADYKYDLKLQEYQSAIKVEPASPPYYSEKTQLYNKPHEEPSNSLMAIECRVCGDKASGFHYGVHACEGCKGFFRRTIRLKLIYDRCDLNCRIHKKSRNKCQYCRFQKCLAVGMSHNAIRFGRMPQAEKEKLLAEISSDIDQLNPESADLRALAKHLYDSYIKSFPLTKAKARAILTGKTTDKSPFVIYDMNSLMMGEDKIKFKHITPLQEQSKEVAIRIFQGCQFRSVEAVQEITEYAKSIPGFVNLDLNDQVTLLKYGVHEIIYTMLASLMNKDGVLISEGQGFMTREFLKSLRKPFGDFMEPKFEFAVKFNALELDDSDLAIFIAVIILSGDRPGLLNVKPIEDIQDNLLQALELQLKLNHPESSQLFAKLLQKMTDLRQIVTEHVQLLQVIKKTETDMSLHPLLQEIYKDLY

[4] = molecular target: T3, Peroxisome proliferator-activated receptor gamma (Homo sapiens, UniProt P37231); assay: Agonist activity at recombinant human GAL4-DBD fused PPARgamma LBD expressed in COS7 cells after 24 hrs by luciferase reporter gene assay; type: cell-based
T3 sequence (P37231 whole entry): T2 sequence (whole entry)

[5] = Metabolic stability in human liver microsomes after 0.5 hrs; type: ADME, microsome; conditions: read-out: Stability
[6] = Aqueous thermodynamic solubility of the compound in pH 6.8 solution up to 4 hrs by HPLC-UV analysis; type: physicochemical; conditions: read-out: Therm_solubility
[7] = molecular target: T4, Peroxisome proliferator-activated receptor delta (Homo sapiens) (UniProt Q03181); assay: Agonist activity at PPARdelta (unknown origin) at 10 uM
T4 sequence (whole entry): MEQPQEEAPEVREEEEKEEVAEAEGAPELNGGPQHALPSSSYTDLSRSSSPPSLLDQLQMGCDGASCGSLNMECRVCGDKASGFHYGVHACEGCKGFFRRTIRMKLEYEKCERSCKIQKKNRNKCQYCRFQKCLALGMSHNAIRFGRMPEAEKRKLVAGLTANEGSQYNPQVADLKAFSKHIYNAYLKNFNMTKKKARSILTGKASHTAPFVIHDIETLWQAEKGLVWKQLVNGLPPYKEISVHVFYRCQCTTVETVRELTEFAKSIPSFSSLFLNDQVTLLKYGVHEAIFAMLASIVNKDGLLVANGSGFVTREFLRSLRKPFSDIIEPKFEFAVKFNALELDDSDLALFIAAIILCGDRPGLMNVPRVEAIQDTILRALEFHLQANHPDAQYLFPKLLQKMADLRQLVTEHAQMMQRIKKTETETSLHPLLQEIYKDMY

[8] = 1-octanol/PBS distribution co-efficient, log D of the compound at […] at pH 7.4 after 30 mins by HPLC-MS/MS method; type: physicochemical
[9] = molecular target: T5, Peroxisome proliferator-activated receptor alpha (Homo sapiens) (UniProt Q07869); assay: Agonist activity at recombinant human GAL4-DBD fused PPARalpha LBD expressed in COS7 cells at 10 uM after 24 hrs by luciferase reporter gene assay relative to 2-(4-tert-Butylphenoxy)-3-[4-[2-[(4-pyridin-2-ylbenzoyl)amino]ethoxy] phenyl]propionic acid; type: cell-based
T5 sequence (whole entry): T1 sequence (Q07869 whole entry)

[10] = AUC (0 to 24 hrs) in Zucker diabetic fatty rat at 3 mg/kg, po dosed once daily for 14 days and followed by additional administration on day 15; type: ADME, organism-based; design: time < 24 hr, dose 3 mg/kg, route oral; conditions: in vivo
[11] = system: Rattus norvegicus; assay: Antidiabetic activity in Zucker diabetic fatty rat assessed as reduction in plasma glucose level at 3 mg/kg, po administered once daily for 14 days measured on day 15 relative to control; type: functional; design: scale not given: the % may be the effect or the level left
[12] = system: Rattus norvegicus; assay: Toxicity in Zucker diabetic fatty rat assessed as body weight gain at 3 mg/kg, po administered once daily for 14 days relative to control; type: organism-based; conditions: in vivo, 336 h
[13] = Tmax in Zucker diabetic fatty rat at 3 mg/kg, po dosed once daily for 14 days and followed by additional administration on day 15; type: ADME, organism-based; conditions: in vivo
[14] = Cmax in Zucker diabetic fatty rat at 3 mg/kg, po dosed once daily for 14 days and followed by additional administration on day 15; type: ADME, organism-based; design: dose 3 mg/kg, route oral; conditions: in vivo
[15] = Metabolic stability in rat liver microsomes after 0.5 hrs; type: ADME, microsome; conditions: read-out: Stability

SMILES: Cc1cc(Cl)cnc1Oc1ccc2nc(COc3cccc(C(=O)O)c3)n(C)c2c1
- Papp at 4 h [1]: 13.7 ×10⁻⁶ cm/s
- EC50 [2]: > 10000 nM
- AUC at 24 h [10]: 1250 ng·h/mL
- Activity [11]: 54.1%
- Activity [12]: 18.5%
- Emax [3]: 92%
- EC50 [4]: 21 nM
- Tmax [13]: 2.4 h
- remaining at 0.5 h [5]: 85%
- solubility thermodynamic at 4 h [6]: 3.9 µg/mL (≈ 9.2 µM)
- Cmax [14]: 120 ng/mL
- logD at 0.5 h [8]: 1.8
- remaining at 0.5 h [15]: 81%
- Emax [9]: 7%

SMILES: Cc1cnc(Oc2ccc3nc(COc4cccc(C(=O)[O-])c4)n(C)c3c2)c(F)c1.[Na+]
- AUC at 24 h [10]: 3610 ng·h/mL
- Activity [11]: 65.7%
- Activity [12]: 10.8%
- Tmax [13]: 2 h
- Cmax [14]: 420 ng/mL

SMILES: Cc1cc(C)cc(Oc2ccc3nc(COc4cccc(C(=O)O)c4)n(C)c3n2)c1
- Papp at 4 h [1]: 17.4 ×10⁻⁶ cm/s
- EC50 [2]: > 10000 nM
- Emax [3]: 83%
- EC50 [4]: 41 nM
- remaining at 0.5 h [5]: 71%
- solubility thermodynamic at 4 h [6]: 0.5 µg/mL (≈ 1.24 µM)
- Activity [7]: inactive
- logD at 0.5 h [8]: 2.3
- Emax [9]: 19%

SMILES: Cc1ccc(Oc2cc3c(cn2)nc(COc2cccc(C(=O)O)c2)n3C)cc1
- Papp at 4 h [1]: 6.8 ×10⁻⁶ cm/s
- EC50 [2]: > 10000 nM
- Emax [3]: 80%
- EC50 [4]: 746 nM
- remaining at 0.5 h [5]: 80%
- solubility thermodynamic at 4 h [6]: 360 µg/mL (≈ 924 µM)
- Activity [7]: inactive
- logD at 0.5 h [8]: 1
- Emax [9]: 6%

SMILES: Cn1c(COc2cccc(C(=O)O)c2)nc2ccc(Oc3ccc(Cl)c(F)c3)nc21
- Papp at 4 h [1]: 25.6 ×10⁻⁶ cm/s
- EC50 [2]: > 10000 nM
- Emax [3]: 88%
- EC50 [4]: 269 nM
- remaining at 0.5 h [5]: 92%
- solubility thermodynamic at 4 h [6]: 1.7 µg/mL (≈ 3.97 µM)
- Activity [7]: inactive
- logD at 0.5 h [8]: 2.2
- Emax [9]: 45%

SMILES: Cn1c(COc2cccc(C(=O)O)c2)nc2ccc(Oc3ccc(Cl)cn3)cc21
- Papp at 4 h [1]: 16.2 ×10⁻⁶ cm/s
- EC50 [2]: > 10000 nM
- AUC at 24 h [10]: 1010 ng·h/mL
- Activity [11]: 14.8%
- Activity [12]: 0.2%
- Emax [3]: 66%
- EC50 [4]: 71 nM
- Tmax [13]: 4.4 h
- remaining at 0.5 h [5]: 100%
- solubility thermodynamic at 4 h [6]: 17 µg/mL (≈ 41.5 µM)
- Cmax [14]: 66 ng/mL
- logD at 0.5 h [8]: 1.2
- remaining at 0.5 h [15]: 100%
- Emax [9]: 3%

Now from value to compound, other results behind:

- Papp at 4 h [1]: 11.2 ×10⁻⁶ cm/s
- EC50 [2]: > 10000 nM
- Emax [3]: 73%
- EC50 [4]: 1170 nM
- remaining at 0.5 h [5]: 98%
- solubility thermodynamic at 4 h [6]: 11 µg/mL (≈ 25.7 µM)
- Activity [7]: inactive
- logD at 0.5 h [8]: 1.4
- Emax [9]: 15%
SMILES: Cn1c(COc2cccc(C(=O)O)c2)nc2cnc(Oc3ccc(Cl)c(F)c3)cc21

- Papp at 4 h [1]: 12.6 ×10⁻⁶ cm/s
- EC50 [2]: > 10000 nM
- AUC at 24 h [10]: 2520 ng·h/mL
- Emax [3]: 58%
- EC50 [4]: 45 nM
- Tmax [13]: 2 h
- solubility thermodynamic at 4 h [6]: 33 µg/mL (≈ 84.7 µM)
- Activity [7]: inactive
- Cmax [14]: 510 ng/mL
- logD at 0.5 h [8]: 1.7
- remaining at 0.5 h [15]: 100%
- Emax [9]: 38%
SMILES: Cc1ccc(Oc2ccc3nc(COc4cccc(C(=O)O)c4)n(C)c3n2)cc1
- Activity [11]: 37.6%
- Activity [12]: 6.8%

- Papp at 4 h [1]: 16.1 ×10⁻⁶ cm/s
- EC50 [2]: > 10000 nM
- AUC at 24 h [10]: 1400 ng·h/mL
- Emax [3]: 61%
- EC50 [4]: 89 nM
- Tmax [13]: 2.4 h
- remaining at 0.5 h [5]: 100%
- solubility thermodynamic at 4 h [6]: 9.9 µg/mL (≈ 22.3 µM)
- Cmax [14]: 130 ng/mL
- logD at 0.5 h [8]: 1.9
- Emax [9]: 6%
SMILES: Cn1c(COc2cccc(C(=O)O)c2)nc2ccc(Oc3ncc(Cl)cc3Cl)cc21
- Activity [11]: 53.3%
- Activity [12]: 10.1%

- Papp at 4 h [1]: 12.4 ×10⁻⁶ cm/s
- EC50 [2]: > 10000 nM
- Emax [3]: 74%
- EC50 [4]: 90 nM
- remaining at 0.5 h [5]: 73%
- solubility thermodynamic at 4 h [6]: 16 µg/mL (≈ 39.7 µM)
- Activity [7]: inactive
- logD at 0.5 h [8]: 2.2
- Emax [9]: 30%
SMILES: Cc1ccc(Oc2ccc3nc(COc4cccc(C(=O)O)c4)n(C)c3n2)cc1C

- Papp at 4 h [1]: 28.8 ×10⁻⁶ cm/s
- EC50 [2]: > 10000 nM
- Emax [3]: 75%
- EC50 [4]: 101 nM
- remaining at 0.5 h [5]: 63%
- solubility thermodynamic at 4 h [6]: 0.9 µg/mL (≈ 2.23 µM)
- Activity [7]: inactive
- logD at 0.5 h [8]: 2.3
- Emax [9]: 17%
SMILES: Cc1ccc(Oc2ccc3nc(COc4cccc(C(=O)O)c4)n(C)c3n2)c(C)c1

- Papp at 4 h [1]: 31.5 ×10⁻⁶ cm/s
- EC50 [2]: > 10000 nM
- AUC at 24 h [10]: 4080 ng·h/mL
- Emax [3]: 79%
- EC50 [4]: 25 nM
- Tmax [13]: 2 h
- remaining at 0.5 h [5]: 76%
- solubility thermodynamic at 4 h [6]: 4.3 µg/mL (≈ 10.4 µM)
- Activity [7]: inactive
- Cmax [14]: 600 ng/mL
- logD at 0.5 h [8]: 2.5
- remaining at 0.5 h [15]: 71%
- Emax [9]: 23%
SMILES: Cn1c(COc2cccc(C(=O)O)c2)nc2ccc(Oc3ccc4c(c3)CCC4)nc21
- Activity [11]: 70.4%
- Activity [12]: 14%
